Assay results reported in PubChem BioAssay AID1996.
≈ marks a conversion by molar mass, not a printed value.

Details: buffer; pH 7.4; 200.0 µM

| Structure (SMILES) | solubility kinetic |
| --- | --- |
| Cn1c(=O)c2c([nH]c(=S)n2Cc2ccc(Cl)cc2)n(C)c1=O | > 50.5 µg/mL |
| CCOc1ccc(Cl)cc1CNCCCSc1ncccn1 | 43 µg/mL (≈ 127 µM) |
| CCN(Cc1ccccc1)C1CCN(Cc2ccccc2)CC1 | 34.2 µg/mL (≈ 111 µM) |
| CC(C)(C)c1cc(NS(=O)(=O)c2cccs2)no1 | 30.8 µg/mL (≈ 108 µM) |
| CCN1CCN(C(=S)NC(CC(=O)c2ccccc2)c2ccccc2)CC1 (configuration not stated) | 49.8 µg/mL (≈ 131 µM) |
| O=C(/C=C/c1cc(Br)ccc1F)OCC(=O)N1CCOCC1 | > 55.8 µg/mL |
| FC(F)(F)c1ccc(NC(=S)NC2CCCCC2)cc1 | 2.5 µg/mL (≈ 8.27 µM) |
| COc1cc(CN2CCNCC2)cc(OC)c1OC.Cl | 23.1 µg/mL |
| O=C(NCC1CC1)Nc1ccccc1 | > 28.5 µg/mL |
| O=c1oc(-c2ccco2)nc2sc3c(c12)CCCCC3 | < 0.6 µg/mL |
| FC(F)(F)c1ccc(Cl)c(NC2=NCCCCC2)c1 | > 43.6 µg/mL |
| COc1ccc(-c2nc(-c3ccncc3)no2)c(OC)c1 | 6 µg/mL (≈ 21.2 µM) |
| Cc1cc(C)c(C)c(S(=O)(=O)NC(C)C(=O)O)c1C (configuration not stated) | > 42.8 µg/mL |
| CCSC1=NN2CCS(=O)(=O)N=C2S1 | > 37.7 µg/mL |
| O=C(COc1ccc2cc(Br)ccc2c1)N1CCOCC1 | > 52.5 µg/mL |
| CC(C)c1ccc(S(=O)(=O)N2CCN(C(=O)CN3C(=O)c4ccccc4C3=O)CC2)cc1 | 3.1 µg/mL (≈ 6.81 µM) |
| CNS(=O)(=O)c1cc(N)ccc1C | 26.2 µg/mL (≈ 131 µM) |
| COc1ccc(CCNC(=O)Cc2ccsc2)cc1 | > 41.3 µg/mL |
| Cc1ccccc1Nc1ncnc(N)n1 | > 30.2 µg/mL |
| CCOC(=O)c1c(NC(=O)CN2CCCCC2)sc(C)c1C | < 0.3 µg/mL |
| Cc1c(-c2cccc(Cl)c2)nc2ccccc2c1C(=O)NC1CC1 | > 50.5 µg/mL |
| Cc1ccc(OCC(=O)N2C(C)CCCC2C)c([N+](=O)[O-])n1 (configuration not stated) | > 46.1 µg/mL |

| Structure (SMILES) | solubility kinetic |
| --- | --- |
| O=C1C2C3CCC(O3)C2C(=O)N1c1cccc(F)c1 (configuration not stated) | 39.2 µg/mL (≈ 150 µM) |
| N#C/C(=C(/O)C(Cl)(Cl)Cl)c1nc2ccccc2[nH]1 | 12.1 µg/mL (≈ 40 µM) |
| NC1=NC(=O)/C(=C/c2ccc(Br)cc2)S1 | 1.8 µg/mL (≈ 6.36 µM) |
| Cc1cc2c(sc3c(C)ccc(C)c32)c(C)n1.Cl | < 0.6 µg/mL |
| CN(CC(=O)Nc1ccc(Cl)cc1)C(=O)CCc1ccccc1 | 5.2 µg/mL (≈ 15.7 µM) |
| NC(=O)C1CCCN1S(=O)(=O)c1ccc2ccccc2c1 (configuration not stated) | > 45.7 µg/mL |
| O=c1c2ccc(Cl)cc2nc2n1CC/C2=C\c1cccc(O)c1 | 2.9 µg/mL (≈ 8.93 µM) |
| O=C1CC(C(=O)Nc2cccc(F)c2)n2c(nc3ccccc32)N1 (configuration not stated) | 0.9 µg/mL (≈ 2.78 µM) |
| O=C1C(=O)N(CC(=O)N2CCCC2)c2ccccc21 | 38.2 µg/mL (≈ 148 µM) |
| OC1CCC(Nc2ncnc3sccc23)CC1 (configuration not stated) | > 37.4 µg/mL |
| Cc1nc(Cl)sc1C(=O)Nc1ccc(C(C)(C)C)cc1 | 11.3 µg/mL (≈ 36.6 µM) |
| Cn1c2ccc(F)cc2c2ncn(Cc3ccccn3)c(=O)c21 | 7.9 µg/mL (≈ 25.6 µM) |
| COc1ccccc1-n1cc(-c2ccc(C)cc2)[nH]c1=S | 1 µg/mL (≈ 3.37 µM) |
| CC(SCc1cc(=O)n2c([nH]c3ccccc32)c1C#N)C(=O)O (configuration not stated) | 21.7 µg/mL (≈ 66.3 µM) |
| O=C(Nc1cccc2ccccc12)NC(Cc1ccccc1)C(=O)O (configuration not stated) | > 50.2 µg/mL |
| CCCCN(C(=O)C1CCCC1)c1c(N)n(Cc2ccccc2)c(=O)[nH]c1=O | 3.6 µg/mL (≈ 9.36 µM) |
| Cc1ccc(-c2cn3cc(C)ccc3n2)cc1 | 1.6 µg/mL (≈ 7.2 µM) |
| C#CCn1c2ccccc2c2nc3ccccc3nc21 | < 0.2 µg/mL |
| COc1cccc(COC(=O)Nc2ccccc2F)c1 | 18.9 µg/mL (≈ 68.7 µM) |
| CC(=O)NC1(C(F)(F)F)NC(=O)N(c2ccc(F)cc2)C1=O (configuration not stated) | > 47.9 µg/mL |
| Cc1ccc(/C=N/n2c(C)nc3ccccc3c2=O)o1 | > 40.1 µg/mL |
| CC(=O)N[C@@H](CS)C(=O)O | > 24.5 µg/mL |

| Structure (SMILES) | solubility kinetic |
| --- | --- |
| Cc1ccc(C)c(NC(=O)NCc2ccccn2)c1 | 35.4 µg/mL (≈ 139 µM) |
| O=C(O)/C=C/C(=O)Nc1ccc(Cc2ccc(NC(=O)/C=C/C(=O)O)cc2)cc1 | 58 µg/mL (≈ 147 µM) |
| CCCN(CCC)C(=S)NC1CC2C=CC1C2 (configuration not stated) | > 37.9 µg/mL |
| O=C(Nc1nccs1)C1CC=CCC1 (configuration not stated) | 22.7 µg/mL (≈ 109 µM) |
| COc1ccccc1-n1cc(-c2ccc([N+](=O)[O-])cc2)[nH]c1=S | 0.3 µg/mL (≈ 0.916 µM) |
| N#Cc1cc(S(=O)(=O)N2CCOCC2)ccc1N1CCOCC1 | > 50.6 µg/mL |
| O=C1CC(c2ccccc2)CN1C(=O)c1cccnc1 (configuration not stated) | 34.8 µg/mL (≈ 131 µM) |
| COC(=O)c1sccc1NS(=O)(=O)c1ccccc1 | 40.5 µg/mL (≈ 136 µM) |
| Cc1ccc2nc(-c3ccc(O)c(O)c3)cn2c1.Cl | 22.7 µg/mL |
| Cc1ccccc1C(=O)OC(C)CN1CCN(C)CC1.Cl (configuration not stated) | > 46.9 µg/mL |
| Cc1ccc(C(=O)Nc2ccncc2)c(Cl)c1 | > 37 µg/mL |
| C/C(=N/O)c1no[n+]([O-])c1/C(C)=N\O | > 30 µg/mL |
| O=C(CCl)N1CCN(C(=O)C2COc3ccccc3O2)CC1 (configuration not stated) | > 48.7 µg/mL |
| O=S(=O)(c1cnc[nH]1)N1CCN(c2ccc(F)cc2)CC1 | 5.8 µg/mL (≈ 18.7 µM) |
| COc1cccc(C(=O)OCC(=O)NC23CC4CC(CC(C4)C2)C3)c1 | 19.8 µg/mL (≈ 57.7 µM) |
| Br.COc1ccc(C(=O)CN2CCCCC2)cc1 | > 47.1 µg/mL |
| CCOC(=O)c1ccc2c(c1)N(CC)C(=O)c1ccccc1S2 | 13.2 µg/mL (≈ 40.3 µM) |
| O=C(O)CC1(CC(=O)Nc2cc3ccccc3cn2)CCCCC1 | 40.7 µg/mL (≈ 125 µM) |
| COc1ccc(NCC(=O)n2c(C)c(C)c3ccccc32)cc1OC | 4.9 µg/mL (≈ 14.5 µM) |
| Cc1c2n(c3ccccc13)CCC2=O | 14.1 µg/mL (≈ 76.1 µM) |
| Cc1cc(C)cc(NC(=O)CN2CCN(c3ccccc3)CC2)c1 | 1.8 µg/mL (≈ 5.57 µM) |
| Cc1ccc(F)cc1NS(=O)(=O)c1ccc(Cl)s1 | > 45.9 µg/mL |

| Structure (SMILES) | solubility kinetic |
| --- | --- |
| Cc1ccc2cc(/C=C/C(=O)c3ccco3)c(Cl)nc2c1 | 3.2 µg/mL (≈ 10.7 µM) |
| CCC(=O)c1c(NC)cc(C)oc1=O | > 29.3 µg/mL |
| Cc1ccc(S(=O)(=O)N2CCOCC2)cc1NC(=O)COC(=O)CCc1c[nH]c2ccccc12 | 26.4 µg/mL (≈ 54.4 µM) |
| Cc1sc2ncnc(NC(C)C(=O)O)c2c1C (configuration not stated) | > 37.7 µg/mL |
| Cc1cc(O)c(C(=O)/C=C/c2cccc([N+](=O)[O-])c2)c(=O)o1 | > 45.2 µg/mL |
| CC1CCN(C(=O)c2cc(-c3ccco3)on2)CC1 | 37.7 µg/mL (≈ 145 µM) |
| COc1ccc(S(=O)(=O)NCCOc2ccccc2)cc1F | 2.4 µg/mL (≈ 7.38 µM) |
| CCOC(=O)C1=C(C)NC(=O)CC1c1ccccc1OC (configuration not stated) | 36.8 µg/mL (≈ 127 µM) |
| Cc1ccc(S(=O)(=O)CC(=O)Nc2ccc(Cl)cn2)cc1 | 5.4 µg/mL (≈ 16.6 µM) |
| CC(C)(CC(=O)O)CC(=O)Nc1cc(C(F)(F)F)cc(C(F)(F)F)c1 | 46.1 µg/mL (≈ 124 µM) |
| COc1ccc(C(CC(=O)O)N2Cc3ccccc3C2=O)cc1OC (configuration not stated) | > 51.2 µg/mL |
| CC(C)c1cc(C(C)C)c(S(=O)(=O)N2CCNCC2)c(C(C)C)c1 | 39.3 µg/mL (≈ 111 µM) |
| Cc1nonc1OCCN1CCN(c2ccc([N+](=O)[O-])cc2)CC1 | 42.6 µg/mL (≈ 128 µM) |
| Cc1ccc(Nc2nc3ccccc3c(=O)[nH]2)cc1C | 0.4 µg/mL (≈ 1.51 µM) |
| Cc1cnc([N+](=O)[O-])n1CCOC(=O)NC(=O)c1ccccc1 | 44.4 µg/mL (≈ 139 µM) |
| CCN(C(=O)CSc1cccc[n+]1[O-])c1ccccc1 | > 43.3 µg/mL |
| Cc1cccc(NC(=O)NCc2ccc3c(c2)OCO3)c1 | 1.6 µg/mL (≈ 5.63 µM) |
| CC(=O)N=c1c(C#N)cc2c(=O)n3cccc(C)c3nc2n1Cc1ccco1 | 5.1 µg/mL (≈ 13.7 µM) |
| COc1cccc(N2CCN(C(=O)c3cc4cc(Cl)ccc4[nH]3)CC2)c1 | 11.8 µg/mL (≈ 31.9 µM) |
| Cc1ccccc1NC(=O)CN1CCOCC1.Cl | > 40.6 µg/mL |
| N#C/C(=C\c1ccccc1O)C(=O)Nc1ccccn1 | 32.9 µg/mL (≈ 124 µM) |
